Measured values taken from US20250032651A1, “[177LU] LUTETIUM-PSMA I&T COMPOSITION AND DOSIMETRY, KIT, METHOD OF MAKING, AND METHOD OF USING THEREOF” (Curium US LLC, priority 2022, published 2025).
“And” between values parts separate entries of the source, which are not always exact repeats. Equal entries are not always repeated.

Experiment: Normal organ dosimetry Cycle 1: SPECT/CT, TIACs, OLINDA 2.2.3 absorbed radiation dose
Type: in vivo, human
Conditions: individual patients/doses
Experimental: This Example presents the biodistribution, dosimetry, and pharmacokinetics (PK) results of a PK/Dosimetry sub-study performed as part of a Phase III trial. Twenty-seven (27) patients were administered a target activity of 7.4±10% GBq of ^177Lu-PSMA-I&T and underwent single photon emission computed tomography (SPECT)/computed tomography (CT) imaging at four timepoints (4 h, 24 h, 48 h, and 168 h). Image data was analysed to compute time-activity curves (TACs) and subsequently time-integrated activity coefficients (TIACs) in each organ of interest and in organs showing appreciable and meaningful ^177Lu-PSMA-I&T activity. Organ Level Internal Dose Assessment (OLINDA 2.2.3) was used to compute organ and whole body absorbed radiation doses for each patient.
All participating sites underwent a rigorous site setup process during which all dose calibrators, scanners, and gamma counters used in the sub-study were calibrated. Sites were allowed to enroll patients in the sub-study only after the completion and approval of all site setup processes by Invicro. Patients underwent SPECT/CT imaging, with anatomical coverage typically extending from the salivary glands to the pelvis, following the administration of a targeted 7.4±10% GBq of ^177Lu-PSMA-I&T at cycle 1. SPECT/CT imaging was performed at four timepoints: 4 h, 24 h, 48 h, and 168 h post-injection. Additionally, a subset of patients imaged at Cycle 1 (16 out of 27), were also imaged at Cycle 3 (Table 2).
The imaging data was analyzed using Invicro's VivoQuant software, a validated software used in a 21 CFR § 11-compliant workflow. The general quantification approach was based on the principles detailed in the Medical Internal Radiation Dose (MIRD) Pamphlet No. 16, No 23, and No 26 as appropriate.
Volume of interest (VOI) (kidneys, bladder, liver, lumbar vertebrae L2-L4, lacrimal glands, salivary glands [parotid and submandibular glands], and whole body) were delineated on each dataset by a trained image analyst. […] Organs were segmented either by drawing the entire contour of the organ, or by placing a sphere in a representative region of the organ and then multiplying by the organ's effective mass (based on patient's height and weight). Segmentation methods for each organ are specified in Table 3 and were consistently applied to each patient.
Clearance of the radiopharmaceutical was derived from a data-appropriate fit of each organ's TAC. Depending on the TAC's shape, the data was fitted with the sum of one, two, or three exponentials, or using a rise and fall model. Fitting was performed with in-house Python software. TIACs were calculated through analytical integration of the curve fit extrapolated to infinity. […] A whole-body TAC was derived from delineating the imaged body. The remainder activity was determined by subtracting the cumulative organ TIACs from the whole body TIAC.
Organ TIACs were input into OLINDA 2.2.3 for the computation of organ and whole-body absorbed doses, using International Commission on Radiological Protection (ICRP)-103 weighing factors. The ICRP-89 derived male phantom was used for dose estimation. Organs and body mass as defined by ICRP-89 were scaled based on height and mass using patient effective mass.^4 The voiding bladder model as implemented in OLINDA was used to determine bladder TIAC, assuming a voiding interval of 4 hours. The human alimentary tract model (HAT model) described in ICRP 100 and implemented in OLINDA was used to compute doses to the small intestine, right colon, left colon and rectum for patients showing clearance through the GI tract. The fraction of injected activity (fIA) cleared via the GI tract was determined by taking the peak fIA in the GI tract over all the imaging timepoints. […] The Red Marrow mass in L2-L4 was assumed to be 6.7% of the total red marrow mass.

O=C([O-])CC[C@H](NC(=O)N[C@@H](CCCCNC(=O)CCCCCCC(=O)NCCCC[C@@H](NC(=O)[C@@H](Cc1ccccc1)NC(=O)[C@@H](Cc1ccc(O)c(I)c1)NC(=O)CC[C@H](C(=O)[O-])N1CCN(CC(=O)[O-])CCN(CC(=O)[O-])CCN(CC(=O)[O-])CC1)C(=O)[O-])C(=O)[O-])C(=O)[O-].[177Lu+3].[H+].[H+].[H+].[H+].[H+] [Lu-177 PSMA I&T]
Kidneys absorbed dose (68.9 µg PSMA I&T content): 0.31 Gy/GBq | Kidneys absorbed dose (71.6 µg PSMA I&T content): 0.36 Gy/GBq | Kidneys absorbed dose (72.1 µg PSMA I&T content): 0.32 Gy/GBq and 0.54 Gy/GBq | Kidneys absorbed dose (76.8 µg PSMA I&T content): 0.23 Gy/GBq | Kidneys absorbed dose (77.0 µg PSMA I&T content): 0.28 Gy/GBq and 0.56 Gy/GBq | Kidneys absorbed dose (77.7 µg PSMA I&T content): 0.41 Gy/GBq | Kidneys absorbed dose (79.0 µg PSMA I&T content): 0.53 Gy/GBq | Kidneys absorbed dose (79.4 µg PSMA I&T content): 0.81 Gy/GBq | Kidneys absorbed dose (79.5 µg PSMA I&T content): 0.30 Gy/GBq and 0.38 Gy/GBq | Kidneys absorbed dose (80.4 µg PSMA I&T content): 0.24 Gy/GBq | Kidneys absorbed dose (82.0 µg PSMA I&T content): 0.17 Gy/GBq | Kidneys absorbed dose (82.2 µg PSMA I&T content): 0.34 Gy/GBq | Kidneys absorbed dose (82.6 µg PSMA I&T content): 0.29 Gy/GBq | Kidneys absorbed dose (85.3 µg PSMA I&T content): 0.55 Gy/GBq | Kidneys absorbed dose (89.2 µg PSMA I&T content): 0.43 Gy/GBq | Kidneys absorbed dose (90.0 µg PSMA I&T content): 0.35 Gy/GBq | Kidneys absorbed dose (92.6 µg PSMA I&T content): 0.05 Gy/GBq and 0.45 Gy/GBq | Kidneys absorbed dose (99.2 µg PSMA I&T content): 0.57 Gy/GBq | Kidneys absorbed dose (105.1 µg PSMA I&T content): 0.48 Gy/GBq | Kidneys absorbed dose (108.5 µg PSMA I&T content): 0.27 Gy/GBq | Kidneys absorbed dose (110.6 µg PSMA I&T content): 0.64 Gy/GBq | Kidneys absorbed dose (119.1 µg PSMA I&T content): 0.28 Gy/GBq | Lacrimal Glands absorbed dose (72.1 µg PSMA I&T content): 0.19 Gy/GBq and 0.20 Gy/GBq | Lacrimal Glands absorbed dose (76.8 µg PSMA I&T content): 0.08 Gy/GBq | Lacrimal Glands absorbed dose (77.0 µg PSMA I&T content): 0.07 Gy/GBq and 0.06 Gy/GBq | Lacrimal Glands absorbed dose (77.7 µg PSMA I&T content): 0.66 Gy/GBq | Lacrimal Glands absorbed dose (79.0 µg PSMA I&T content): 0.16 Gy/GBq | Lacrimal Glands absorbed dose (79.4 µg PSMA I&T content): 0.63 Gy/GBq | Lacrimal Glands absorbed dose (79.5 µg PSMA I&T content): 0.26 Gy/GBq and 0.47 Gy/GBq | Lacrimal Glands absorbed dose (80.4 µg PSMA I&T content): 0.08 Gy/GBq | Lacrimal Glands absorbed dose (82.0 µg PSMA I&T content): 0.07 Gy/GBq | Lacrimal Glands absorbed dose (82.2 µg PSMA I&T content): 0.54 Gy/GBq | Lacrimal Glands absorbed dose (89.2 µg PSMA I&T content): 0.38 Gy/GBq | Lacrimal Glands absorbed dose (90.0 µg PSMA I&T content): 0.09 Gy/GBq | Lacrimal Glands absorbed dose (92.6 µg PSMA I&T content): 0.05 Gy/GBq and 0.04 Gy/GBq | Lacrimal Glands absorbed dose (105.1 µg PSMA I&T content): 1.19 Gy/GBq | Lacrimal Glands absorbed dose (108.5 µg PSMA I&T content): 0.94 Gy/GBq and 1.09 Gy/GBq | Lacrimal Glands absorbed dose (110.6 µg PSMA I&T content): 0.68 Gy/GBq | Lacrimal Glands absorbed dose (119.1 µg PSMA I&T content): 0.62 Gy/GBq | Liver absorbed dose (68.9 µg PSMA I&T content): 0.04 Gy/GBq | Liver absorbed dose (71.6 µg PSMA I&T content): 0.02 Gy/GBq | Liver absorbed dose (72.1 µg PSMA I&T content): 0.02 Gy/GBq | Liver absorbed dose (76.8 µg PSMA I&T content): 0.03 Gy/GBq | Liver absorbed dose (77.0 µg PSMA I&T content): 0.06 Gy/GBq and 0.02 Gy/GBq | Liver absorbed dose (77.7 µg PSMA I&T content): 0.04 Gy/GBq | Liver absorbed dose (79.0 µg PSMA I&T content): 0.03 Gy/GBq | Liver absorbed dose (79.4 µg PSMA I&T content): 0.03 Gy/GBq | Liver absorbed dose (79.5 µg PSMA I&T content): 0.03 Gy/GBq and 0.07 Gy/GBq | Liver absorbed dose (80.4 µg PSMA I&T content): 0.10 Gy/GBq | Liver absorbed dose (82.0 µg PSMA I&T content): 0.05 Gy/GBq | Liver absorbed dose (82.2 µg PSMA I&T content): 0.02 Gy/GBq | Liver absorbed dose (82.6 µg PSMA I&T content): 0.02 Gy/GBq | Liver absorbed dose (85.3 µg PSMA I&T content): 0.02 Gy/GBq | Liver absorbed dose (89.2 µg PSMA I&T content): 0.08 Gy/GBq | Liver absorbed dose (90.0 µg PSMA I&T content): 0.04 Gy/GBq | Liver absorbed dose (92.6 µg PSMA I&T content): 0.09 Gy/GBq and 0.01 Gy/GBq | Liver absorbed dose (99.2 µg PSMA I&T content): 0.04 Gy/GBq | Liver absorbed dose (105.1 µg PSMA I&T content): 0.06 Gy/GBq | Liver absorbed dose (108.5 µg PSMA I&T content): 0.07 Gy/GBq and 0.05 Gy/GBq | Liver absorbed dose (110.6 µg PSMA I&T content): 0.03 Gy/GBq | Liver absorbed dose (119.1 µg PSMA I&T content): 0.02 Gy/GBq | Salivary Glands absorbed dose (68.9 µg PSMA I&T content): 0.11 Gy/GBq | Salivary Glands absorbed dose (71.6 µg PSMA I&T content): 0.16 Gy/GBq | Salivary Glands absorbed dose (72.1 µg PSMA I&T content): 0.06 Gy/GBq and 0.00 Gy/GBq | Salivary Glands absorbed dose (76.8 µg PSMA I&T content): 0.11 Gy/GBq | Salivary Glands absorbed dose (77.0 µg PSMA I&T content): 0.19 Gy/GBq and 0.10 Gy/GBq | Salivary Glands absorbed dose (77.7 µg PSMA I&T content): 0.04 Gy/GBq | Salivary Glands absorbed dose (79.0 µg PSMA I&T content): 0.15 Gy/GBq | Salivary Glands absorbed dose (79.4 µg PSMA I&T content): 0.12 Gy/GBq | Salivary Glands absorbed dose (79.5 µg PSMA I&T content): 0.26 Gy/GBq and 0.19 Gy/GBq | Salivary Glands absorbed dose (80.4 µg PSMA I&T content): 0.20 Gy/GBq | Salivary Glands absorbed dose (82.0 µg PSMA I&T content): 0.32 Gy/GBq | Salivary Glands absorbed dose (82.2 µg PSMA I&T content): 0.03 Gy/GBq | Salivary Glands absorbed dose (82.6 µg PSMA I&T content): 0.16 Gy/GBq | Salivary Glands absorbed dose (85.3 µg PSMA I&T content): 0.09 Gy/GBq | Salivary Glands absorbed dose (89.2 µg PSMA I&T content): 0.39 Gy/GBq | Salivary Glands absorbed dose (90.0 µg PSMA I&T content): 0.80 Gy/GBq | Salivary Glands absorbed dose (92.6 µg PSMA I&T content): 0.13 Gy/GBq and 0.14 Gy/GBq | Salivary Glands absorbed dose (99.2 µg PSMA I&T content): 0.27 Gy/GBq | Salivary Glands absorbed dose (105.1 µg PSMA I&T content): 0.18 Gy/GBq | Salivary Glands absorbed dose (108.5 µg PSMA I&T content): 0.29 Gy/GBq and 0.10 Gy/GBq | Salivary Glands absorbed dose (110.6 µg PSMA I&T content): 0.03 Gy/GBq | Salivary Glands absorbed dose (119.1 µg PSMA I&T content): 0.28 Gy/GBq
